Results on nine compounds are retold here after patent US11330821B2, “Herbicidal compounds” (Syngenta Participations AG, priority 2015, dated 2022).

Common to all, as to format: in vivo
What all share (conditions): post-emergence spray, evaluated after 13 days

Test [1] relates to Amaranthus retroflexus (AMARE). The test can be described thus: Post-emergence efficacy, Amaranthus retroflexus. How it is done:
(§1) B1 Post-Emergence Efficacy
(§2) Seeds of a variety of test species are shown in standard soil in pots:—Solanum nigrum (SOLNI), Amaranthus retroflexus (AMARE), Setaria faberi (SETFA), Echinochloa crus-galli (ECHCG), Ipomoea hederacea (IPOHE), Lolium perenne (LOLPE). After 8 days cultivation (post-emergence) under controlled conditions in a glasshouse (at 24/16° C., day/night; 14 hours light; 65% humidity), the plants are sprayed with an aqueous spray solution derived from the formulation of the technical active ingredient in acetone/water (50:50) solution containing 0.5% Tween 20 (polyoxyethylene sorbitan monolaurate, CAS RN 9005-64-5). Compounds are applied at 1000 and 62.5 g/ha. The test plants are then grown in a glasshouse under controlled conditions in a glasshouse (at 24/16° C., day/night; 14 hours light; 65% humidity) and watered twice daily. After 13 days, the test is evaluated for the percentage damage caused to the plant. The biological activities are assessed on a five point scale (5=80-100%; 4=60-79%; 3=40-59%; 2=20-39%; 1=0-19%).

The next test has as its system Solanum nigrum (SOLNI). The test can be described thus: Post-emergence efficacy, Solanum nigrum. How it is done: as §1, §2
For another test, the system named is Setaria faberi (SETFA). Put plainly: Post-emergence efficacy, Setaria faberi. How it is done:
as §1, §2

For a further test, the system named is Lolium perenne (LOLPE). The test can be described thus: Post-emergence efficacy, Lolium perenne. How it is done:
as §1, §2

For test [2], the system named is Echinochloa crus-galli (ECHCG). The test can be described thus: Post-emergence efficacy, Echinochloa crus-galli. How it is done:
as §1, §2

The subject of test [3] is Ipomoea hederacea (IPOHE). Put plainly: Post-emergence efficacy, Ipomoea hederacea. How it is done: as §1, §2

For the compound `Cc1nn(C)c(=O)c(-c2c(F)ccc(Cl)c2OCc2nccs2)c1O` [Compound 1.25], the “AMARE percentage damage caused to the plant (five point scale)” value (shortened to “AMARE percentage damage caused”) in test [1] (62.5 g/ha) and in test [1] (1000 g/ha) was 5 (5=80-100%) in each case. Besides, the “SOLNI percentage damage caused to the plant (five point scale)” value (from here on “SOLNI percentage damage caused”) in the test with Solanum nigrum (SOLNI) (62.5 g/ha) and in the test with Solanum nigrum (SOLNI) (1000 g/ha) was 5 (5=80-100%) in each case. Moreover, the “SETFA percentage damage caused to the plant (five point scale)” value (“SETFA percentage damage caused” for short) with Setaria faberi (SETFA) (62.5 g/ha) and in the test on Setaria faberi (SETFA) (1000 g/ha) was 5 (5=80-100%) throughout. Moreover, the “LOLPE percentage damage caused to the plant (five point scale)” value (“LOLPE percentage damage caused” for short) in the test with Lolium perenne (LOLPE) (62.5 g/ha) is listed as 4 (4=60-79%); in the test on Lolium perenne (LOLPE) (1000 g/ha) it was 5 (5=80-100%). For the same compound, the “ECHCG percentage damage caused to the plant (five point scale)” value (“ECHCG percentage damage caused” for short) in test [2] (62.5 g/ha) is reported as 4 (4=60-79%); in test [2] (1000 g/ha) it was 5 (5=80-100%). In addition, the “IPOHE percentage damage caused to the plant (five point scale)” value (“IPOHE percentage damage caused” for short) in test [3] (62.5 g/ha) and in test [3] (1000 g/ha) was 5 (5=80-100%) throughout.

With `Cc1csc(COc2c(Cl)ccc(Cl)c2-c2c(O)c(C)nn(C)c2=O)n1` [Compound 1.13], the “AMARE percentage damage caused” value in test [1] (62.5 g/ha) is 3 (3=40-59%); in test [1] (1000 g/ha) it was 4 (4=60-79%). Moreover, the “SOLNI percentage damage caused” value with Solanum nigrum (SOLNI) (62.5 g/ha) is 4 (4=60-79%); with Solanum nigrum (SOLNI) (1000 g/ha), 5 (5=80-100%). The “SETFA percentage damage caused” value is recorded as 4 (4=60-79%) in the test on Setaria faberi (SETFA) (62.5 g/ha) and 5 (5=80-100%) in the test on Setaria faberi (SETFA) (1000 g/ha). The “LOLPE percentage damage caused” value in the test with Lolium perenne (LOLPE) (62.5 g/ha) is on record as 2 (2=20-39%); with Lolium perenne (LOLPE) (1000 g/ha), 4 (4=60-79%). Further, the “ECHCG percentage damage caused” value in test [2] (62.5 g/ha) was 3 (3=40-59%); in test [2] (1000 g/ha), 5 (5=80-100%). The “IPOHE percentage damage caused” value in test [3] (62.5 g/ha) is listed as 4 (4=60-79%); in test [3] (1000 g/ha), 5 (5=80-100%).

For the compound `Cc1csc(COc2c(Cl)ccc(F)c2-c2c(O)c(C)nn(C)c2=O)n1` [Compound 1.34], the “AMARE percentage damage caused” value in test [1] (62.5 g/ha) is on record as 4 (4=60-79%); in test [1] (1000 g/ha) it was 5 (5=80-100%). Further, the “SOLNI percentage damage caused” value in the test with Solanum nigrum (SOLNI) (62.5 g/ha) and in the test with Solanum nigrum (SOLNI) (1000 g/ha) was 5 (5=80-100%) in each case. Further, the results for the “SETFA percentage damage caused” value in the test with Setaria faberi (SETFA) (62.5 g/ha) and in the test on Setaria faberi (SETFA) (1000 g/ha) were 4 (4=60-79%) and 5 (5=80-100%), respectively. Moreover, the “LOLPE percentage damage caused” value is 3 (3=40-59%) in the test with Lolium perenne (LOLPE) (62.5 g/ha) and 4 (4=60-79%) with Lolium perenne (LOLPE) (1000 g/ha). Moreover, the “ECHCG percentage damage caused” value was 4 (4=60-79%) in test [2] (62.5 g/ha) and 5 (5=80-100%) in test [2] (1000 g/ha). In addition, the “IPOHE percentage damage caused” value in test [3] (62.5 g/ha) and in test [3] (1000 g/ha) was 5 (5=80-100%) each time.

With `Cc1nn(C)c(=O)c(-c2c(Cl)c(Cl)cc(Cl)c2OCc2cnc(Cl)s2)c1O` [Compound 5.01], the figures for the “AMARE percentage damage caused” value in test [1] (62.5 g/ha) and in test [1] (1000 g/ha) were 3 (3=40-59%) and 5 (5=80-100%), respectively. Besides, the “SOLNI percentage damage caused” value with Solanum nigrum (SOLNI) (62.5 g/ha) and in the test with Solanum nigrum (SOLNI) (1000 g/ha) was 5 (5=80-100%) each time. For the same compound, the “SETFA percentage damage caused” value is given as 2 (2=20-39%) with Setaria faberi (SETFA) (62.5 g/ha) and 5 (5=80-100%) in the test with Setaria faberi (SETFA) (1000 g/ha). For the same compound, the “LOLPE percentage damage caused” value was 2 (2=20-39%) with Lolium perenne (LOLPE) (62.5 g/ha) and 5 (5=80-100%) in the test with Lolium perenne (LOLPE) (1000 g/ha). Further, the “ECHCG percentage damage caused” value is listed as 2 (2=20-39%) in test [2] (62.5 g/ha) and 5 (5=80-100%) in test [2] (1000 g/ha). For the same compound, the “IPOHE percentage damage caused” value in test [3] (62.5 g/ha) and in test [3] (1000 g/ha) was 5 (5=80-100%) in each case.

As to `Cc1nn(C)c(=O)c(-c2c(Cl)ccc(Cl)c2OCc2ccnc(Cl)c2)c1O` [Compound 1.14], the “AMARE percentage damage caused” value in test [1] (62.5 g/ha) and in test [1] (1000 g/ha) was 5 (5=80-100%) throughout. For the same compound, the “SOLNI percentage damage caused” value was 4 (4=60-79%) with Solanum nigrum (SOLNI) (62.5 g/ha) and 5 (5=80-100%) with Solanum nigrum (SOLNI) (1000 g/ha). The “SETFA percentage damage caused” value in the test on Setaria faberi (SETFA) (62.5 g/ha) is 4 (4=60-79%); with Setaria faberi (SETFA) (1000 g/ha), 5 (5=80-100%). The “LOLPE percentage damage caused” value in the test on Lolium perenne (LOLPE) (62.5 g/ha) is reported as 3 (3=40-59%); in the test with Lolium perenne (LOLPE) (1000 g/ha), 5 (5=80-100%). In addition, the figures for the “ECHCG percentage damage caused” value in test [2] (62.5 g/ha) and in test [2] (1000 g/ha) were 4 (4=60-79%) and 5 (5=80-100%), respectively. For the same compound, the “IPOHE percentage damage caused” value in test [3] (62.5 g/ha) and in test [3] (1000 g/ha) was 5 (5=80-100%) throughout.

For the compound `Cc1nn(C)c(=O)c(-c2c(Cl)ccc(Cl)c2OCc2cccnc2)c1O` [Compound 1.02], the “AMARE percentage damage caused” value in test [1] (62.5 g/ha) and in test [1] (1000 g/ha) was 4 (4=60-79%) throughout. Further, the “SOLNI percentage damage caused” value in the test with Solanum nigrum (SOLNI) (62.5 g/ha) is given as 4 (4=60-79%); with Solanum nigrum (SOLNI) (1000 g/ha) it was 5 (5=80-100%). The “SETFA percentage damage caused” value in the test with Setaria faberi (SETFA) (62.5 g/ha) was 3 (3=40-59%); in the test with Setaria faberi (SETFA) (1000 g/ha), 5 (5=80-100%). In addition, the “LOLPE percentage damage caused” value with Lolium perenne (LOLPE) (62.5 g/ha) is on record as 2 (2=20-39%); in the test with Lolium perenne (LOLPE) (1000 g/ha), 4 (4=60-79%). Besides, the “ECHCG percentage damage caused” value in test [2] (62.5 g/ha) is recorded as 3 (3=40-59%); in test [2] (1000 g/ha) it was 4 (4=60-79%). Besides, the “IPOHE percentage damage caused” value in test [3] (62.5 g/ha) is 3 (3=40-59%); in test [3] (1000 g/ha), 5 (5=80-100%).

Consider `Cc1nn(C)c(=O)c(-c2c(Cl)ccc(Cl)c2OCc2cncs2)c1O` [Compound 1.06], for which the “AMARE percentage damage caused” value in test [1] (62.5 g/ha) is listed as 4 (4=60-79%); in test [1] (1000 g/ha), 5 (5=80-100%). Moreover, the “SOLNI percentage damage caused” value in the test with Solanum nigrum (SOLNI) (62.5 g/ha) and in the test on Solanum nigrum (SOLNI) (1000 g/ha) was 5 (5=80-100%) in each case. Further, the “SETFA percentage damage caused” value with Setaria faberi (SETFA) (62.5 g/ha) and in the test on Setaria faberi (SETFA) (1000 g/ha) was 5 (5=80-100%) each time. The “LOLPE percentage damage caused” value with Lolium perenne (LOLPE) (62.5 g/ha) was 4 (4=60-79%); in the test with Lolium perenne (LOLPE) (1000 g/ha), 5 (5=80-100%). Further, the “ECHCG percentage damage caused” value in test [2] (62.5 g/ha) and in test [2] (1000 g/ha) was 5 (5=80-100%) each time. The “IPOHE percentage damage caused” value in test [3] (62.5 g/ha) and in test [3] (1000 g/ha) was 5 (5=80-100%) in each case.

With `Cc1nn(C)c(=O)c(-c2c(F)ccc(Cl)c2OCc2cccnc2)c1O` [Compound 1.23], the figures for the “AMARE percentage damage caused” value in test [1] (62.5 g/ha) and in test [1] (1000 g/ha) were 4 (4=60-79%) and 5 (5=80-100%), respectively. Further, the figures for the “SOLNI percentage damage caused” value in the test with Solanum nigrum (SOLNI) (62.5 g/ha) and in the test on Solanum nigrum (SOLNI) (1000 g/ha) were 4 (4=60-79%) and 5 (5=80-100%), respectively. The “SETFA percentage damage caused” value in the test with Setaria faberi (SETFA) (62.5 g/ha) is 2 (2=20-39%); with Setaria faberi (SETFA) (1000 g/ha) it was 5 (5=80-100%). In addition, the “LOLPE percentage damage caused” value in the test with Lolium perenne (LOLPE) (62.5 g/ha) is 2 (2=20-39%); in the test with Lolium perenne (LOLPE) (1000 g/ha), 5 (5=80-100%). Also, the “ECHCG percentage damage caused” value in test [2] (62.5 g/ha) is 2 (2=20-39%); in test [2] (1000 g/ha) it was 5 (5=80-100%). The entries for the “IPOHE percentage damage caused” value in test [3] (62.5 g/ha) and in test [3] (1000 g/ha) were 4 (4=60-79%) and 5 (5=80-100%), respectively.

For the compound `Cc1cnc(COc2c(Cl)ccc(Cl)c2-c2c(O)c(C)nn(C)c2=O)cn1` [Compound 1.21], the “AMARE percentage damage caused” value in test [1] (62.5 g/ha) was 2 (2=20-39%); in test [1] (1000 g/ha), 3 (3=40-59%). The entries for the “SOLNI percentage damage caused” value in the test with Solanum nigrum (SOLNI) (62.5 g/ha) and in the test with Solanum nigrum (SOLNI) (1000 g/ha) were 3 (3=40-59%) and 4 (4=60-79%), respectively. Also, the “SETFA percentage damage caused” value was 3 (3=40-59%) with Setaria faberi (SETFA) (62.5 g/ha) and 5 (5=80-100%) with Setaria faberi (SETFA) (1000 g/ha). The “LOLPE percentage damage caused” value in the test with Lolium perenne (LOLPE) (62.5 g/ha) is recorded as 1 (1=0-19%); in the test on Lolium perenne (LOLPE) (1000 g/ha), 2 (2=20-39%). Further, the “ECHCG percentage damage caused” value in test [2] (62.5 g/ha) is 1 (1=0-19%); in test [2] (1000 g/ha) it was 4 (4=60-79%). Also, the “IPOHE percentage damage caused” value is 4 (4=60-79%) in test [3] (62.5 g/ha) and 5 (5=80-100%) in test [3] (1000 g/ha).
